Reference: publication PMC7113773 (Antiviral Research, 2014)

Experiments:
[1] = tested on: influenza A/H1N1, A/H3N2 and B viruses; test: CPE reduction assay / screen, stated for the three influenza viruses together; assay type: cell-based; details: Influenza A virus, H1N1|H3N2, read-out: virus growth inhibition
[2] = tested on: PR8 virus; assay type: cell-based, influenza A virus
[3] = tested on: PR8 virus; assay type: cell-based, influenza A virus; remark: listed apart in the source
[4] = tested on: PR8 virus NP and HA protein; assay type: cell-based, influenza A virus; details: 11, 33 and 100 μM, 24 h at 35 °C
[5] = target: PR8-derived viral RNA polymerase (Influenza A virus, UniProt P03428+P03431+P03433); assay type: cell-based; details: 11, 33 and 100 μM, Vero cells, FLuc normalized against RLuc, day 1
[6] = target: PR8 NA (Influenza A virus, UniProt P03468); test: biochemical
[7] = tested on: wild-type NA derived from influenza H1N1 (A/California/04/2009); assay type: biochemical
[8] = tested on: HSV; test: MTT-based antiviral assay, HSV in Vero cells; assay type: cell-based, herpes simplex virus; details: maximum concentration of 100 μM, data not shown
[9] = tested on: FECV; test: MTT-based antiviral assay, FECV in CrFK cells; assay type: cell-based, feline coronavirus; details: maximum concentration of 100 μM, data not shown
[10] = tested on: CoxB; test: MTT-based antiviral assay, CoxB in HeLa cells; assay type: cell-based, Coxsackie B virus; details: maximum concentration of 100 μM, data not shown
[11] = tested on: HIV; test: MTT-based antiviral assay, HIV in MT-4 cells; assay type: cell-based, human immunodeficiency virus; details: maximum concentration of 100 μM, data not shown
[12] = in vitro; details: dog
[13] = tested on: A/Puerto Rico/8/34 (H1N1; PR8); test: organism not typed; assay type: cell-based, influenza A virus; details: for EC50: MDCK, 72 h, read-out: EC50 for influenza virus A/Puerto Rico/8/34
[14] = tested on: A/Hong Kong/8/68 (H3N2); test: organism not typed; assay type: cell-based, influenza A virus; details: for EC50: MDCK, 72 h, read-out: EC50 for influenza virus A/Hong Kong/8/68
[15] = tested on: B/Lee/40; assay type: cell-based, influenza B virus
[16] = tested on: pore-forming glycoprotein perforin; details: previous study, ref Lena et al., 2008; cited from earlier work
[17] = tested on: PR8 virus entry; test: Confocal microscopy of viral NP; details: 100 μM, MOI 2.5, 2 h at 37 °C, MDCK cells
[18] = tested on: PR8 virus; assay type: cell-based, influenza A virus; remark: listed apart in the source

Sequence of PR8 NA (P03468 whole entry, looked up): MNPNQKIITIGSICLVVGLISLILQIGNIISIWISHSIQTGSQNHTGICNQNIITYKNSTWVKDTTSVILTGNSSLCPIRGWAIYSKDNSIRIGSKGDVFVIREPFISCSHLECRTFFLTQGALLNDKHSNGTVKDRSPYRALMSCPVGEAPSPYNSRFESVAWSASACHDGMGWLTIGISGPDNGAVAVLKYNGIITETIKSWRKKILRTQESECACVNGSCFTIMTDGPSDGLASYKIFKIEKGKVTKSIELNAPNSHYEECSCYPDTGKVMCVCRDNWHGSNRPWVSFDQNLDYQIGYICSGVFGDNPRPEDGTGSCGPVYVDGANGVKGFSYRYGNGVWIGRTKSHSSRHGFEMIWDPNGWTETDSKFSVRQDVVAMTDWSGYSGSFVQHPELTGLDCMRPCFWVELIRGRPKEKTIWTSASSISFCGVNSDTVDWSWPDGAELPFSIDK

Compound | inhibition at 20 µM [1] [%] | plaque titer (infectious viral titers) [2] | vRNA levels in culture supernatants [3] | viral protein level (NP, HA) in cells [4] | viral RNA polymerase function [5] | IC50 [6] [nM] | function of wild-type NA [7] | antiviral activity against HSV [8] | antiviral activity against FECV [9] | antiviral activity against CoxB [10] | antiviral activity against HIV [11] | CC50 [12] [µM] | S.I. (selectivity index, CC50/EC50), A/Puerto Rico/8/34 [13] | EC50 [13] [µM] | S.I. (selectivity index, CC50/EC50), A/Hong Kong/8/68 [14] | EC50 [14] [µM] | S.I. (selectivity index, CC50/EC50), B/Lee/40 [15] | inhibitory effect on cell lysis induced by perforin [16] | NP signal, distribution and intensity in cells [17] | HA titer [18]
Cc1cc2c(c(=S)[nH]1)C(=O)O/C2=C\c1c[nH]c2ccc(F)cc12 [Compound 15a, (Z)-1-((5-Fluoro-1H-indol-3-yl)methylene)-6-methyl-4-thioxo-4,5-dihydrofuro[3,4-c]pyridin-3(1H)-one] | > 50 | significantly inhibited | significantly inhibited | Reduction of the influenza viral protein level | not changed | 600 ± 100 | suppressed | no antiviral activity was detected | no antiviral activity was detected | no antiviral activity was detected | no antiviral activity was detected | > 900 | – | – | – | – | – | – | – | –
Cc1cc2c(c(=S)[nH]1)C(=O)O/C2=C\c1cccs1 [Compound 15q, (Z)-6-Methyl-1-(thiophen-2-ylmethylene)-4-thioxo-4,5-dihydrofuro[3,4-c]pyridin-3(1H)-one] | – | significantly inhibited | significantly inhibited | Reduction of the influenza viral protein level | not changed | 1500 ± 400 | – | no antiviral activity was detected | no antiviral activity was detected | no antiviral activity was detected | no antiviral activity was detected | > 900 | 7.5 ± 3.2 (>120.0) | 7.5 | 6.8 ± 1.3 (>132.4) | 6.8 | 7.0 ± 3.8 (>128.6) | active | not affected | –
NC(=O)c1nc(F)c[nH]c1=O [Compound T-705, 6-flouro-3-hydroxy-2-pyrazinecarboxamide, reference compound] | – | – | – | – | suppressed | – | – | – | – | – | – | > 100 | – | 4.3 ± 2.4 | – | 6.5 ± 1.7 | – | – | – | 8 HAU/50 μl
O=C(O[C@@H]1Cc2c(O)cc(O)cc2O[C@@H]1c1cc(O)c(O)c(O)c1)c1cc(O)c(O)c(O)c1 [EGCG, (−)-epigallocatechin-3-gallate, reference compound] | – | – | – | – | – | – | – | – | – | – | – | – | – | – | – | – | – | – | reduced the overall NP signal intensity | –
CCC(CC)O[C@@H]1C=C(C(=O)O)C[C@H](N)[C@H]1NC(C)=O [Oseltamivir carboxylate, oseltamivir carboxylate, reference compound] | – | – | – | – | – | – | – | – | – | – | – | > 100 | – | 0.03 ± 0.01 | – | < 0.01 | – | – | – | no detection
